Data: publication PMC7719179, “Small molecule inhibition of Dynamin-dependent endocytosis targets multiple niche signals and impairs leukemia stem cells” (Nature Communications, 2020)
Values joined by “and” are separate entries in the source; they are usually repeats but may differ in a detail not shown here. Equal entries are not always repeated.

Tests used:
Lmo2^Tg DN3a thymocytes = assay: Absolute numbers of co-cultured Lmo2^Tg DN3a thymocytes after in vitro treatment; assay type: cell-based, mouse; settings: 72 h, Dynole 34-2 0.2 μM, Ruxolitinib 0.2 μM, DAPT 0.1 μM
Description: Pre-leukemic and leukemic thymocytes were purified by flow cytometry and co-cultured on GFP-positive OP9 and OP9-DL1 stromal cell lines, as described previously. Thymocytes were co-cultured in reconstituted alpha-MEM medium (#12318, Gibco, Grand Island NY, USA) supplemented with 20% FCS (#12318), HEPES 10 mM (#15630-080), sodium pyruvate 1 mM (#11360-070), β-mercaptoethanol 55 μM (#21985-023), Glutamax 2 mM (#15750-060), 1% Penicillin/Streptomycin (#15140-122), 5 ng/mL rmFLT-3 ligand (#250-31 L, Pepro Tech), 5 ng/mL rmIL-7 (#217-17, Pepro Tech) and 25 ng/mL rmSCF (#250-03, Pepro Tech). […]

[1] = test system: Ba/F3-IL7R^Stat5-CA cells; assay: Cytotoxic activity in IL-7-dependent and IL-7-independent Ba/F3-IL7R^Stat5-CA cells; assay type: cell-based, murine; settings: for Survival (%) over survival at day 0, reported as 100%: Ba/F3-IL7R^Stat5-CA cells, dose = IC50 or LC50 of each drug; for sensitivity of Ba/F3-IL7R^Stat5-CA cells with constitutive pStat5 (doxycycline): result in words
Text: The doxycycline-inducible dual-colour TRMPVIR (TRE-dsRed-miR30/shRNA-PGK-Venus-IRES-rtTA3) retroviral vector[84] was kindly given by R. A. Dickins and was modified by replacing the dsRed-miR30/shRNA sequence by a T2A self-cleaving peptide[85] fusioned with the mCherry fluorescent protein (from TRIPZ, Addgene) inserted into the BamHI and EcoRI sites of the plasmid downstream of the TRE promoter to generate the TxTCPVIR (TRE-gene-T2A-mCherry-PGK-Venus-IRES-rtTA3) retroviral vector. Using standard cloning techniques, we inserted the full-length sequence of Stat5-CA from the pMig-R1 construct into the TxTCPVIR vector to generate the TxTCPVIR-Stat5-CA construct. All subcloned constructs were verified by DNA sequencing (Micromon, Monash University, Australia). Detailed cloning strategies, primers sequences and vectors are available on request.
Ba/F3 cells (kindly provided by a person from The Walter and Eliza Hall Institute of Medical Research) were infected with pMIG-R1/Il7r retroviral supernatants produced in 293T cells, and transduced cells were sorted with a BD Influx (BD Australia) and selected by culture in medium supplemented with 5 ng/mL rmIL-7 (#217-17, Pepro Tech, Rocky Hill NJ, USA) for 7 days. Ba/F3 cells stably expressing Il7r (Ba/F3-IL7R) were infected with TxTCPVIR-Stat5-CA retroviral supernatants produced in 293T. Cell sorting was performed with a BD Influx and transduced cells were treated with doxycycline for 48 h to induce the expression of the Stat5-CA-T2A-mCherry fusion protein.
Flow cytometry analyses were performed as previously described[10],[86] on single-cell suspensions stained using BD Pharmingen antibodies (BD Australia, North Ryde NSW, Australia) against mouse CD4 (RM4-5), CD8 (53-6.7), CD25 (PC61.5), CD44 (IM7), CD45.1 (A20), CD45.2 (104), Thy1.2 (53-2.1; #561616), TCRβ (H57-597), CD117 (ACK45), CD135 (A2F10.1), CD150 (TC15-12F12.2; #562373), B220 (RA3-6B2; #563708), CD3 (145-2C11; #563004), CD19 (ID3; #557655), Gr-1 (RB6-8C5; #563299 and #565033), CD11b (M1/70; #563015 and #560455), Ter119 (Ter119; #565523 and #557909), Sca-1 (D7; #558160) and an eBioscience antibody (eBioscience, Invitrogen) against mouse NOTCH1 (22E5). DN3 populations and IL-7R were stained using BioLegend antibodies (Australian Biosearch, Balcatta WA, Australia) against mouse CD28 (E18) and CD127 (A7R34), respectively. Apoptosis was measured using an antibody against AnnexinV (#556420, BD Australia) and the […] Sytox Blue (BD Australia) following the manufacturer’s protocol.

Row | Structure (SMILES) | Absolute numbers DN3a cells (Lmo2^Tg DN3a thymocytes) | Survival (%) over survival at day 0, reported as 100% ([1]; +IL-7 -DOX, 0 h) | Survival (%) over survival at day 0, reported as 100% ([1]; +IL-7 -DOX, 24 h) | Survival (%) over survival at day 0, reported as 100% ([1]; -IL-7 +DOX, 0 h) | Survival (%) over survival at day 0, reported as 100% ([1]; -IL-7 +DOX, 24 h) | Survival (%) over survival at day 0, reported as 100% ([1]; -IL-7 +DOX, 48 h) | Survival (%) over survival at day 0, reported as 100% ([1]; -IL-7 +DOX, 72 h) | Survival (%) over survival at day 0, reported as 100% ([1]; -IL-7 +DOX, 96 h) | Survival (%) over survival at day 0, reported as 100% ([1]; -IL-7 +DOX, 120 h) | sensitivity of Ba/F3-IL7R^Stat5-CA cells with constitutive pStat5 (doxycycline) [1] | Survival (%) over survival at day 0, reported as 100% ([1]; +IL-7 -DOX, 72 h) | Survival (%) over survival at day 0, reported as 100% ([1]; +IL-7 -DOX, 96 h)
1 | C[C@H](NC(=O)Cc1cc(F)cc(F)c1)C(=O)N[C@H](C(=O)OC(C)(C)C)c1ccccc1 [DAPT, N-[N-(3,5-Difluorophenacetyl)-L-alanyl]-S-phenylglycine t-butyl ester] | 26800 and 17800 and 27000 and 25800 and 24600 |  |  |  |  |  |  |  |  |  |  | 
2 | N#CC[C@H](C1CCCC1)n1cc(-c2ncnc3[nH]ccc23)cn1 [Ruxolitinib] |  | 101.66% and 101.91% and 100.26% and 101.92% and 100.41% and 100.83% | 71.50% and 70.41% and 55.25% and 49.40% and 37.10% and 63.11% | 100.45% and 99.83% and 99.53% and 102.59% and 101.73% and 102.89% | 85.97% and 82.57% and 104.88% and 98.10% and 101.20% and 101.43% | 97.70% and 95.00% and 95.90% and 97.50% and 97.30% and 99.10% | 94.40% and 93.30% and 85.80% and 83.20% and 99.40% and 84.90% | 93.30% and 85.80% and 83.20% and 99.40% | 92.90% and 90.20% and 86.50% and 89.30% and 78.60% and 92.10% | resistant |  | 
3 | CCCCCCCCNC(=O)C(C#N)=Cc1cn(CCCN(C)C)c2ccccc12 [Dynole 34-2, 2-Cyano-N-octyl-3-(1-(3-dimethylaminopropyl)-1H-indol-3-yl)-acrylamide] | 28200 and 18800 and 27200 and 23300 and 23200 | 100.02% and 100.26% and 101.92% and 100.41% and 100.83% | 43.12% and 51.68% and 50.50% and 59.30% and 47.40% and 40.60% | 100.62% and 100.47% and 99.53% and 102.59% and 101.73% and 102.89% | 90.53% and 91.07% and 101.15% and 104.21% and 101.37% and 100.26% | 94.10% and 95.40% and 97.40% and 99.30% and 95.90% | 93.90% and 97.20% and 90.70% and 94.80% and 93.20% and 97.10% | 93.40% and 86.60% and 95.50% and 96.20% and 87.10% and 90.40% | 91.10% and 96.40% and 90.00% and 90.90% and 93.10% and 83.00% | resistant | 14.22% and 14.73% and 23.20% and 19.38% and 17.76% and 14.96% | 9.23% and 10.77% and 10.13% and 6.51% and 4.52% and 2.59%
